“Also recorded” adds a separate entry of the source. Like-named read-outs stand apart in the source and are kept apart here.
Legend:
[1] = tested on: HT1080 fibrosarcoma cells; experiment: HT1080 cell migration assay; assay type: cell-based, human; conditions: for inhibition at 100 µM: Homo sapiens, HT-1080, 24 h, read-out: inhibition of HT1080 cell migration, 100 µM, 24 h
[2] = tested on: PC1/3; experiment: PC1/3 inhibition; assay type: biochemical; conditions: for inhibition of PC1/3 (in words): 10 µM; for inhibition of PC1/3: 100 µM
[3] = tested on: anthrax toxin (PA + LF) cytotoxicity in RAW264.7 cells; assay type: cell-based, murine
[4] = tested on: Pseudomonas aeruginosa exotoxin A cytotoxicity in CHO DG44 cells; experiment: Pseudomonas exotoxin A assay; assay type: cell-based, Chinese hamster
[5] = biological target: furin; conditions: Ki values taken from the literature; cited from earlier work
[6] = tested on: Golgi furin in CHO-GRAPfurin cells; experiment: SEAP activity assay in CHO-GRAPfurin cells; assay type: cell-based, Chinese hamster; conditions: 100 µM, 20–24 h
[7] = tested on: PACE4; conditions: cited from earlier work
[8] = tested on: PC5; conditions: cited from earlier work
[9] = biological target: Soluble human furin (Homo sapiens, UniProt P09958); experiment: Furin enzyme assay, IC50 and Ki determination
Chain of Soluble human furin (P09958 108-715 limits assumed): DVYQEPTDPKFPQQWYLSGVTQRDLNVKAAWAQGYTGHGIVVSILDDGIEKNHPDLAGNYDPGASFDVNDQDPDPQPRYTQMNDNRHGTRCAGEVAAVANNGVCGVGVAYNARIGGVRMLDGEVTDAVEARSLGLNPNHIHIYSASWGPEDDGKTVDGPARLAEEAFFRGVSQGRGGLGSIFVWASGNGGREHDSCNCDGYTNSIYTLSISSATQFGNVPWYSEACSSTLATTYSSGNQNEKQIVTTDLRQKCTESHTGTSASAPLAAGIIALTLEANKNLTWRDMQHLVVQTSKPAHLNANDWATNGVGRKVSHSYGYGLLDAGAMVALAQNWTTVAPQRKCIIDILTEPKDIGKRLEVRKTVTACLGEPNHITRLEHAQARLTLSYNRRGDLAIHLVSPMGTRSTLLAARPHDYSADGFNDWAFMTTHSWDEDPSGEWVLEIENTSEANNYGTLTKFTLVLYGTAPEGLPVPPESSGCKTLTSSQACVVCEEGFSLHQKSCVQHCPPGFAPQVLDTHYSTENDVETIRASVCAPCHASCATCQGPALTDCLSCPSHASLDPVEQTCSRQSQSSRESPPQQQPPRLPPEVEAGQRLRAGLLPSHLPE

[10] = tested on: skin tumor; conditions: cited from earlier work
[11] = tested on: human fibrosarcoma HT1080 cells; conditions: by inhibiting proMT1-MMP processing; cited from earlier work
[12] = concentration not stated in the sentence (10 and 100 µM tested)

Compound	inhibition of cell migration (in words) ([1]; 100 µM, 24 h)	inhibition at 100 µM [1] [%]	protection against anthrax toxicity (in words) ([3]; 100 µM inhibitor, 2 h)	protection against Pseudomonas exotoxin A (in words) [4, 12]	protection against anthrax toxicity (in words) ([3]; 10 µM inhibitor, 2 h)	protection against anthrax toxicity (in words) [3, 12]	inhibition of intracellular (TGN) furin, SEAP release (in words) [6]	further results
N=C(N)Nc1ccc(O[C@@H]2CCC[C@H](Oc3ccc(NC(=N)N)cc3)C2)cc1 [2b, cis-1,3-bis(4-guanidinophenoxy)cyclohexane]	inhibited migration	~40	–	–	–	–	–	–
N=C(N)Nc1ccc(OCCCOc2ccc(NC(=N)N)cc2NC(=N)N)c(NC(=N)N)c1 [2d, 1,3-bis(2,4-diguanidinophenoxy)propane]	–	–	excellent protection	good protection	–	–	–	inhibition of PC1/3 (in words) [2]: no inhibition detected; inhibition of PC1/3 [2]: 51%; inhibition of HT1080 cell migration ([1]; 100 µM, 24 h): around 40%
N=C(N)Nc1ccc(O[C@@H]2CCC[C@H](Oc3ccc(NC(=N)N)cc3NC(=N)N)C2)c(NC(=N)N)c1 [2e, cis-1,3-bis(2,4-diguanidinophenoxy)cyclohexane]	–	20 to 25	excellent protection	good protection	–	–	–	inhibition of PC1/3 (in words) [2]: no inhibition detected; inhibition of PC1/3 [2]: 38%
N=C(N)Nc1ccc(OC2CC(Oc3ccc(NC(=N)N)cc3NC(=N)N)C(NC(=N)N)CC2NC(=N)N)cc1 (centres unmarked) [compound 1b, 1,1'-(4-((2,4-diguanidino-5-(4-guanidinophenoxy)cyclohexyl)oxy)-1,3-phenylene)diguanidine]	retard tumor cell migration; also recorded: good inhibitors of cell migration; also recorded: inhibited cell migration	35	–	protect cells against Bacillus anthracis (anthrax) and Pseudomonas aeruginosa intoxication; also recorded: capable of blocking both Pseudomonas and anthrax toxemia at low doses	complete inhibition of anthrax toxicity	protect cells against Bacillus anthracis (anthrax); also recorded: capable of blocking both Pseudomonas and anthrax toxemia at low doses	block release of a Golgi reporter; also recorded: able to inhibit intracellular furin; also recorded: able to inhibit TGN furin	potency against furin in vitro (in words) [5]: nanomolar potency; protection against Pseudomonas exotoxin A (in words) ([4]; 10 µM inhibitor, 20–24 h): completely prevent Pseudomonas toxin cytotoxicity
N=C(N)Nc1ccc(OC2CC(Oc3ccc(NC(=N)N)cc3)C(NC(=N)N)CC2NC(=N)N)cc1 (centres unmarked) [compound 1g, 1,1'-(4,6-bis(4-guanidinophenoxy)cyclohexane-1,3-diyl)diguanidine]	did not inhibit cell migration; also recorded: unable to inhibit	–	–	only moderate protection; also recorded: modest effect	complete inhibition of anthrax toxicity	efficiently protected cells against anthrax; also recorded: potently prevented anthrax toxicity	unable to inhibit	potency against furin in vitro (in words) [5]: nanomolar potency; cross-inhibition of PACE4 (in words) [7]: substantial cross-inhibition; cross-inhibition of PC5 (in words) [8]: substantial cross-inhibition
N=C(N)Nc1ccc(OCCCOc2ccc(NC(=N)N)cc2)cc1 [compound 2a, 1,3-bis(4-guanidinophenoxy)propane]	inhibited migration	~40	unable to block anthrax toxicity	–	–	–	–	–
N=C(N)Nc1ccc(Oc2cccc(Oc3ccc(NC(=N)N)cc3)c2)cc1 [compound 2c, 1,3-bis(4-guanidinophenoxy)benzene]	the most potent inhibitor; also recorded: inhibited migration; also recorded: completely inhibited cell mobility	–	–	–	–	–	–	–
N=C(N)Nc1ccc(Oc2cccc(Oc3ccc(NC(=N)N)cc3NC(=N)N)c2)c(NC(=N)N)c1 [compound 2f, 1,3-bis(2,4-diguanidinophenoxy)benzene]	–	20 to 25	excellent protection	good protection	almost complete protection; also recorded: complete inhibition of anthrax toxicity	highly efficient protection	only slightly inhibited	inhibition of furin in vitro (in words) [9]: micromolar potency
dec-RVKR-CMK	–	–	–	–	–	–	–	skin tumor progression (in words) [10]: decreases skin tumor progression
naphthofluorescein disodium salt [B3]	–	–	–	–	–	–	–	cell mobility and invasiveness of HT1080 cells (in words) [11]: prevented cell mobility and invasiveness

Source: article PMC4468025 (Biochemical pharmacology, 2015)
